Tested on: human melanoma cell line (A375)
Test: Tumor proliferation inhibitory effect in nude mice transplanted with human melanoma cell line A375 (relative tumor volume)
Assay type: in vivo, mouse
Conditions: oral once daily 10 mL/kg (Compound A 1 mg/mL, PLX4032 10 mg/mL), A375 subcutaneous
Protocol: The present invention is described in more detail by way of Examples below. Example 1 Tumor Proliferation Inhibitory Effect of the Combined Use of Compound A and PLX4032 on a Human Melanoma Cell Line (A375)
Using five nude mice in one group (CAnN.Cg-Foxn1nu/CrlCrlj, female, Charles River Laboratories Japan, Inc.), the antitumor effect of administration of Compound A, PLX4032, or both of these compounds was evaluated. The human-derived melanoma cell line A375 (ATCC) was suspended in PBS (Wako Pure Chemical Industries, Ltd) at a density of 5×10^6 cells/ml, followed by thorough mixing. The resulting mixture was subcutaneously transplanted at the right flank of the body of each mouse in an amount of 0.1 mL. Fourteen days after transplantation, the major axis and the minor axis of a tumor were measured by a digital caliper (Digimatic™ caliper, Mitsutoyo Corporation). The mice were grouped so that the average value of tumor volume was nearly equal among the groups. Also, the tumor volume was calculated according to the equations below. Tumor volume (mm^3)=major axis (mm)×minor axis (mm)×minor axis (mm)/2
Compound A was dissolved in purified water at a concentration of 1 mg/mL. Also, PLX4032 was dissolved in DMSO at a concentration of 200 mg/ml. Further, the resulting solution was diluted 20-fold with a 1% aqueous solution of methylcellulose to prepare a 10 mg/mL PLX4032 suspension.
A control group, a Compound A group, a PLX4032 group, and a Compound A and PLX4032-combination group (hereinbelow, expressed as a combination group) were set up. The aqueous solution of Compound A or the PLX4032 suspension was orally administered to the mice in the Compound A group or the PLX4032 group, respectively, once daily at 10 mL/kg. To the combination group mice, the above drug solutions were each orally administered once daily at 10 mL/kg. The administration period was 23 days. Also, administration was not given to the control group mice.
The tumor volume was measured on the initial day of administration and on the 2nd, 5th, 7th, 9th, 12th, 14th, 16th, 19th, 21st, and 23rd days after initiation of administration. The ratio of the tumor volume on each day of measurement relative to the tumor volume on the initial day of administration was calculated as a relative tumor volume (hereinbelow, expressed as RTV). Further, the average value of RTV of mice in each group was calculated. The changes in the average value of RTV with time were shown in Table 1 and FIG. 1 and the value of each group on Day 23 was shown in FIG. 2.

[1] = Day 2 after initiation of administration
[2] = Day 5 after initiation of administration
[3] = Day 7 after initiation of administration
[4] = Day 9 after initiation of administration
[5] = Day 12 after initiation of administration
[6] = Day 14 after initiation of administration
[7] = Day 16 after initiation of administration
[8] = Day 19 after initiation of administration
[9] = Day 21 after initiation of administration
[10] = Day 23 after initiation of administration

SMILES | average relative tumor volume (RTV) [1] | average relative tumor volume (RTV) [2] | average relative tumor volume (RTV) [3] | average relative tumor volume (RTV) [4] | average relative tumor volume (RTV) [5] | average relative tumor volume (RTV) [6] | average relative tumor volume (RTV) [7] | average relative tumor volume (RTV) [8] | average relative tumor volume (RTV) [9] | average relative tumor volume (RTV) [10]
COc1cc2nccc(Oc3ccc(NC(=O)NC4CC4)c(Cl)c3)c2cc1C(N)=O [Compound A, 4-[3-chloro-4-(cyclopropylaminocarbonyl)aminophenoxy]-7-methoxy-6-quinolinecarboxamide] | 1.77 | 2.62 | 3.40 | 3.85 | 5.12 | 5.40 | 6.30 | 7.89 | 9.16 | 10.17
CCCS(=O)(=O)Nc1ccc(F)c(C(=O)c2c[nH]c3ncc(-c4ccc(Cl)cc4)cc23)c1F [PLX4032, N-(3-{[5-(4-chlorophenyl)-1H-pyrrolo[2,3-b]pyridin-3-yl]carbonyl}-2,4-difluorophenyl)propane-1-sulfonamide] | 0.98 | 0.94 | 1.00 | 1.13 | 1.46 | 1.38 | 1.52 | 1.63 | 1.80 | 1.93
